For 27 molecules, IC50 results are on record in ChEMBL document CHEMBL1137550, “New potent acetylcholinesterase inhibitors in the tetracyclic triterpene series” (J Med Chem, 2007).

Assay [1] deals with Acetylcholinesterase (Electrophorus electricus, UniProt O42275).
Description: Inhibition of Electrophorus electricus AChE by Ellman's method
Assay [2] concerns the target Cholinesterase (Homo sapiens, UniProt P06276).
Description: Inhibition of human serum BuChE by Ellman's method
For assay [3], the target named is T1, Acetylcholinesterase (Bos taurus, UniProt P23795).
T1 sequence (P23795 whole entry): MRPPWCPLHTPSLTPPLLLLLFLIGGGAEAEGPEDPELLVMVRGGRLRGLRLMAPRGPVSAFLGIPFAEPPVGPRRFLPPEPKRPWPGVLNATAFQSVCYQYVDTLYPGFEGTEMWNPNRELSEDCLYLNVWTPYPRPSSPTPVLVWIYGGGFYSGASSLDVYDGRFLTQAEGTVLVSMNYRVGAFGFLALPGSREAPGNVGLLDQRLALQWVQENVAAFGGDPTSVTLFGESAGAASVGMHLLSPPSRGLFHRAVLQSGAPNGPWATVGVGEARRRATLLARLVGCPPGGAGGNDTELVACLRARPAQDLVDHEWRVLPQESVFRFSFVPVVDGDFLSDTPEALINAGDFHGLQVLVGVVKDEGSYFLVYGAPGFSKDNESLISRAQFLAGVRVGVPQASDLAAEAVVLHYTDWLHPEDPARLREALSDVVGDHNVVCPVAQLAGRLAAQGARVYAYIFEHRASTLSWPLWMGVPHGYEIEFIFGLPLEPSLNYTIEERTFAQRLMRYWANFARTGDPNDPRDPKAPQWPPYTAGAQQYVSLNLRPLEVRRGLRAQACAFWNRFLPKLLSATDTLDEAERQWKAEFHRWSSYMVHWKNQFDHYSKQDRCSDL
Nature of the assay: Inhibition of bovine erythrocytes AChE by Ellman's method.

The target of assay [4] is Acetylcholinesterase (Torpedo californica, UniProt P04058).
Description: Inhibition of Torpedo californica AChE by Ellman's method
The target of assay [5] is Acetylcholinesterase (Homo sapiens, UniProt P22303).
Description: Inhibition of human recombinant AChE by Ellman's method

Bounds are passed on as bounds.

Sequence of Cholinesterase (P06276 whole entry): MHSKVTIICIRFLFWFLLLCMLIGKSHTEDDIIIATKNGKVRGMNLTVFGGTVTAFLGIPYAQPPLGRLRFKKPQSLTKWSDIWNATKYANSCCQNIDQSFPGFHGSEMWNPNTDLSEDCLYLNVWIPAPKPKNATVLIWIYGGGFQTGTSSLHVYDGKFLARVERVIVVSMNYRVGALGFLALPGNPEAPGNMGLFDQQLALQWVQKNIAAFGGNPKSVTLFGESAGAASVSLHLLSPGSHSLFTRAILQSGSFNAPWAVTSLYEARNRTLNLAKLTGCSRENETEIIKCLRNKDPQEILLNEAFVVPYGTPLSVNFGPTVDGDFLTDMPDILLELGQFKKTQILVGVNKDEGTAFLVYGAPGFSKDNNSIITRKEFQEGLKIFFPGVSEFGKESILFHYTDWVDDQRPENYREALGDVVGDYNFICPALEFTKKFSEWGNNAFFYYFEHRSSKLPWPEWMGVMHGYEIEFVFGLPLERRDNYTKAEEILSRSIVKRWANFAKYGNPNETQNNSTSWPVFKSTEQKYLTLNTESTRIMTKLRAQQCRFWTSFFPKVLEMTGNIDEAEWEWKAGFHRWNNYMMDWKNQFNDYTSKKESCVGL
Sequence of Acetylcholinesterase (Homo sapiens, UniProt P22303) (P22303 whole entry): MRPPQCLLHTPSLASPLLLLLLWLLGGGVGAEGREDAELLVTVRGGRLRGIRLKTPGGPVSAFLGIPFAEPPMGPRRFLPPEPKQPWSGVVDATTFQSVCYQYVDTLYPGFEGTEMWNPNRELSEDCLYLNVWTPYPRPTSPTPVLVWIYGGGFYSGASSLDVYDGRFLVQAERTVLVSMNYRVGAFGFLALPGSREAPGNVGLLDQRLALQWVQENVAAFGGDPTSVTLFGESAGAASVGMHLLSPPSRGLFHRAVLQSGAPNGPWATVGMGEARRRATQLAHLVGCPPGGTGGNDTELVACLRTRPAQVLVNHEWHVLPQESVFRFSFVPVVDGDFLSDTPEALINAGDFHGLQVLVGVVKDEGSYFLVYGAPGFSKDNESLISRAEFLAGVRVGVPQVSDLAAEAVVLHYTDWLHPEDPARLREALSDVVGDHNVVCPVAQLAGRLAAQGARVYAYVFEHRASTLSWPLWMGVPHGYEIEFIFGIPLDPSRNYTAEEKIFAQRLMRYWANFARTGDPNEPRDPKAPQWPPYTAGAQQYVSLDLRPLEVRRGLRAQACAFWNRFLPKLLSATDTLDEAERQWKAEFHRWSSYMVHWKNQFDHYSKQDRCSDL
Sequence of Acetylcholinesterase (Electrophorus electricus, UniProt O42275) (O42275 whole entry): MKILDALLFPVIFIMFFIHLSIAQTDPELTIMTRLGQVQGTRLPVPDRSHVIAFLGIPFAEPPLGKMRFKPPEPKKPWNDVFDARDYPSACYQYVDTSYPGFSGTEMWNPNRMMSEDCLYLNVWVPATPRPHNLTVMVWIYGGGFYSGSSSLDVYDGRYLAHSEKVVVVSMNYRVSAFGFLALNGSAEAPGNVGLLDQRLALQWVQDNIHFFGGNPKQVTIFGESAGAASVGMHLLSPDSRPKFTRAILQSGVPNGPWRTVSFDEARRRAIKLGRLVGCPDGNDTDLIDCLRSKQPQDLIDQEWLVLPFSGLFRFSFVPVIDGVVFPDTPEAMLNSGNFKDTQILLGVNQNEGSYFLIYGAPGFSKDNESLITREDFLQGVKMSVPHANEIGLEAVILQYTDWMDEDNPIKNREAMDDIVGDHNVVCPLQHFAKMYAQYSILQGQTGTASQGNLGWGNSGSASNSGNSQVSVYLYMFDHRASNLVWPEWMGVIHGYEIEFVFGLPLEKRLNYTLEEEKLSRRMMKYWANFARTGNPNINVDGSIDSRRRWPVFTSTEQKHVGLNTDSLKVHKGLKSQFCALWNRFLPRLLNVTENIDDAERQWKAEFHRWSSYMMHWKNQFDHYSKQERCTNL
Sequence of Acetylcholinesterase (Torpedo californica, UniProt P04058) (P04058 whole entry): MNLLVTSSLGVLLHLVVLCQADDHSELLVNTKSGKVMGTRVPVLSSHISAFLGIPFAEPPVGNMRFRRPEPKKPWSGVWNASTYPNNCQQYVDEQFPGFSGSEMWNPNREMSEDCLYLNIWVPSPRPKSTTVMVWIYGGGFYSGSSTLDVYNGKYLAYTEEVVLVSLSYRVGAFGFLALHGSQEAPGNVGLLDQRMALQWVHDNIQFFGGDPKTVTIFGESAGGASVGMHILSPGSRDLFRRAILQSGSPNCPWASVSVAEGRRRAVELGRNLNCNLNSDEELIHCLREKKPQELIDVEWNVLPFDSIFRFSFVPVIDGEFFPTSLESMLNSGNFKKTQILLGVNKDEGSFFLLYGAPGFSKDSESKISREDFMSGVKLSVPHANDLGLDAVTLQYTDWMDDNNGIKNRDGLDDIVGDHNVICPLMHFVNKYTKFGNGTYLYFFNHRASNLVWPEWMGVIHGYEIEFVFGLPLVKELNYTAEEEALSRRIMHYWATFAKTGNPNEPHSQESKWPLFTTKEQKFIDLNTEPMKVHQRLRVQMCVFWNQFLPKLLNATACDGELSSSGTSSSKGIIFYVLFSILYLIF

With `CC(C)[C@H]1N[C@H]2CC[C@]34C[C@]35C(=O)C[C@]3(C)[C@@H]([C@H](C)N(C)C)C(O)C[C@@]3(C)[C@@H]5CC[C@H]4[C@]2(C)CO1` (some centres not stated), the IC50 in assay [1] is 0.82 µM; in assay [2], > 10 µM.
Consider `CC(C)C1=N[C@H]2CC=C3CC4C(=O)C[C@]5(C)[C@@H]([C@H](C)N(C)C)[C@H](O)C[C@@]5(C)[C@@H]4CC[C@H]3[C@]2(C)CO1` (some centres not stated), for which the IC50 in assay [3] is 0.756 µM; in assay [1] it was 0.031 µM; in assay [4], 0.385 µM; in assay [2], > 1 µM; in assay [5] it was 0.299 µM.
Regarding `C[C@@H]([C@H]1[C@H](O)C[C@@]2(C)[C@@H]3CC[C@@H]4C(=CC[C@@H]5N=C(C(C)(C)C)OC[C@]54C)C[C@H]3C(=O)C[C@]12C)N(C)C`, the IC50 in assay [3] was 1.18 µM; in assay [4] it was 0.372 µM; in assay [2] it was > 10 µM; in assay [5], 0.351 µM.
In the case of `CCC(CC)C1=N[C@H]2CC=C3C[C@H]4C(=O)C[C@]5(C)[C@@H]([C@H](C)N(C)C)[C@H](O)C[C@@]5(C)[C@@H]4CC[C@H]3[C@]2(C)CO1`, the IC50 in assay [2] is 1.54 µM. In other words, the single-digit micromolar range.
As to `CC(C)C1=N[C@H]2CC[C@]34C[C@]35C(=O)C[C@]3(C)[C@@H]([C@H](C)N(C)C)[C@H](O)C[C@@]3(C)[C@@H]5CC[C@H]4[C@]2(C)CN1`, the IC50 was 3.28 µM in assay [3]; 0.018 µM in assay [1]; 0.002 µM in assay [4]; > 10 µM in assay [2]; 3.11 µM in assay [5].
On to `CC[C@H](C)C1=N[C@H]2CC=C3C[C@H]4C(=O)C[C@]5(C)[C@@H]([C@H](C)N(C)C)[C@H](O)C[C@@]5(C)[C@@H]4CC[C@H]3[C@]2(C)CO1`, for which the IC50 was 1.36 µM in assay [3], 0.237 µM in assay [4], > 10 µM in assay [2] and 0.265 µM in assay [5].
In the same order, the values of `CC[C@H](C)C1=N[C@H]2CC=C3C[C@H]4C(=O)C[C@]5(C)[C@@H]([C@H](C)N(C)C)[C@H](O)C[C@@]5(C)[C@@H]4CC[C@H]3[C@]2(C)CN1` are 7.35 µM, 0.447 µM, > 10 µM and 3.83 µM.
`CCC(C)C1=N[C@H]2CC=C3C[C@H]4C(=O)C[C@]5(C)[C@@H]([C@H](C)N(C)C)[C@H](O)C[C@@]5(C)[C@@H]4CC[C@H]3[C@]2(C)CO1` (some centres not stated): the half-maximal inhibitory concentration (IC50) in assay [2] was > 10 µM.
Regarding `CCC1=N[C@H]2CC=C3C[C@H]4C(=O)C[C@]5(C)[C@@H]([C@H](C)N(C)C)[C@H](O)C[C@@]5(C)[C@@H]4CC[C@H]3[C@]2(C)CO1`, the IC50 in assay [2] is > 10 µM.
Regarding `CCC(CC)C(=O)N[C@H]1CC=C2C[C@H]3C(=O)C[C@]4(C)[C@@H]([C@H](C)N(C)C)[C@H](O)C[C@@]4(C)[C@@H]3CC[C@H]2[C@]1(C)CO`, the IC50 in assay [2] is > 10 µM.
Regarding `CC[C@H](C)C(=O)N[C@H]1CC[C@H]2C[C@H]3C(=O)C[C@]4(C)[C@@H]([C@H](C)N(C)C)[C@H](O)C[C@@]4(C)[C@@H]3CC[C@H]2[C@]1(C)CN`, the IC50 in assay [1] is 1.34 µM.
Regarding `CC[C@H](C)C(=O)N[C@H]1CC=C2C[C@H]3C(=O)C[C@]4(C)[C@@H]([C@H](C)N(C)C)[C@H](O)C[C@@]4(C)[C@@H]3CC[C@H]2[C@]1(C)CN`, the IC50 in assay [2] was > 10 µM.
Same read-out and setting: as for `C[C@@H]([C@H]1[C@H](O)C[C@@]2(C)[C@@H]3CC[C@@H]4C(=CC[C@@H]5N=C(Cc6ccccc6)OC[C@]54C)C[C@H]3C(=O)C[C@]12C)N(C)C`, the figure is 0.38 µM.
With `CC(C)C1=N[C@H]2CC[C@H]3C=C4C(=O)C[C@]5(C)[C@@H]([C@H](C)N(C)C)[C@H](O)C[C@@]5(C)[C@@H]4CC[C@H]3[C@]2(C)CO1`, the IC50 in assay [1] stood at 0.11 µM; in assay [2] it was 1.45 µM.
On to `CN[C@@H](C)[C@H]1[C@H](O)C[C@@]2(C)[C@@H]3CC[C@@H]4C(=CC[C@@H]5N=C(C(C)C)OC[C@]54C)C[C@H]3C(=O)C[C@]12C`, for which the IC50 in assay [3] stood at 2.23 µM; in assay [1] it was 0.106 µM; in assay [4], 0.485 µM; in assay [5] it was 0.517 µM.
For the molecule `CC(C)C(=O)N[C@H]1CCC23CC24C(=O)C[C@]2(C)[C@@H]([C@H](C)N(C)C)[C@H](O)C[C@@]2(C)[C@@H]4CC[C@H]3[C@]1(C)CO` (some centres not stated), the IC50 in assay [1] and in assay [2] was > 10 µM in each case.
Molecule `CC(C)C(=O)N[C@H]1CC=C2C[C@H]3C(=O)C[C@]4(C)[C@@H]([C@H](C)N(C)C)[C@H](O)C[C@@]4(C)[C@@H]3CC[C@H]2[C@]1(C)CO` (racemic) gave an IC50 in assay [2] of 1.93 µM.
On to `CC1=N[C@H]2CC=C3C[C@H]4C(=O)C[C@]5(C)[C@@H]([C@H](C)N(C)C)[C@H](O)C[C@@]5(C)[C@@H]4CC[C@H]3[C@]2(C)CO1`, for which the IC50 was 6.12 µM in assay [3], 2.79 µM in assay [4], > 10 µM in assay [2] and 5.24 µM in assay [5].
On to `CC(C)C(=O)N[C@H]1CC[C@H]2C[C@H]3C(=O)C[C@]4(C)[C@@H]([C@H](C)N(C)C)[C@H](O)C[C@@]4(C)[C@@H]3CC[C@H]2[C@]1(C)CN`, for which, in assay [1], the IC50 turned out to be 0.291 µM.
For the molecule `CC(C)C1=N[C@H]2CC=C3C[C@H]4C(=O)C[C@]5(C)[C@@H]([C@H](C)N(C)C)[C@H](OC(=O)C(C)(C)C)C[C@@]5(C)[C@@H]4CC[C@H]3[C@]2(C)CO1`, the IC50 in assay [3] is 1.39 µM; in assay [1], 0.11 µM; in assay [4] it was 0.724 µM; in assay [5], 0.839 µM.
As to `CN[C@@H](C)[C@H]1[C@H](O)C[C@@]2(C)[C@@H]3CC[C@@H]4[C@@H](CC[C@H](NC(=O)C(C)C)[C@@]4(C)CO)C[C@H]3C(=O)C[C@]12C`, the IC50 is 0.11 µM in assay [1] and 1.44 µM in assay [2].
As for `CC[C@H](C)C(=O)N[C@H]1CC=C2C[C@H]3C(=O)C[C@]4(C)[C@@H]([C@H](C)N(C)C)[C@H](O)C[C@@]4(C)[C@@H]3CC[C@H]2[C@]1(C)/C=N/Cc1ccccc1`, in assay [2], the IC50 was > 10 µM.
As for `CC[C@H](C)C(=O)N[C@H]1CC=C2C[C@H]3C(=O)C[C@]4(C)[C@@H]([C@H](C)N(C)C)[C@H](O)C[C@@]4(C)[C@@H]3CC[C@H]2[C@]1(C)CO`, the values for the IC50 in assay [1] and in assay [2] were 0.105 µM and > 10 µM, respectively.
Take `CC[C@H](C)C1=N[C@H]2CC[C@]34C[C@]35C(=O)C[C@]3(C)[C@@H]([C@H](C)N(C)C)[C@H](O)C[C@@]3(C)[C@@H]5CC[C@H]4[C@]2(C)CN1`: the IC50 was 6.49 µM in assay [3], 0.014 µM in assay [1], 0.002 µM in assay [4] and 4.37 µM in assay [5].
As for `C[C@@H]([C@H]1[C@H](O)C[C@@]2(C)[C@@H]3CC[C@@H]4C(=CC[C@@H]5N=C(c6ccccc6)OC[C@]54C)C[C@H]3C(=O)C[C@]12C)N(C)C`, the IC50 in assay [2] is > 10 µM.
In assay [1], `CC(=O)O[C@@H]1C[C@@]2(C)[C@@H]3CC[C@@H]4C(=CC[C@@H]5N=C(C(C)C)OC[C@]54C)C[C@H]3C(=O)C[C@]2(C)[C@H]1[C@H](C)N(C)C` yielded a 50% inhibitory concentration (IC50) of 0.38 µM.
Consider `CC(C)[C@H]1N[C@H]2CC=C3C[C@H]4C(=O)C[C@]5(C)[C@@H]([C@H](C)N(C)C)[C@H](O)C[C@@]5(C)[C@@H]4CC[C@H]3[C@]2(C)CO1`, for which the IC50 in assay [1] was 2.38 µM; in assay [2] it was > 10 µM.
